{"source": "patent US20110082220A1", "about": "“PORCINE UMAMI TASTE RECEPTORS AND USES THEREFOR” (The Regents of The University of California, priority 2007, published 2011)", "key": {"[1]": {"test_system": "Pig umami receptor (T1R1/T1R3)", "test": "Screening assay for ligands: calcium influx via pig umami receptor in transfected CHO-K1 cells (Fluo-4 NW)", "assay_type": "cell-based", "details": "for Absorbance Mean: CHO-K1 cells with pig taste receptors and mouse G alpha 15; for Index Relative to control: ratio of calcium influx to control (no treatment = 1.00); for stimulation of the pig umami receptor (signal, in words): CHO-K1 cell system, calcium signal; for response index: example test run, background (no treatment) = response ratio 1.0, concentration not given"}, "weaned piglets": {"test_system": "weaned piglets", "test": "Double-choice preference test in drinking water, weaned piglets", "assay_type": "in vivo, pigs (Landrace×Large White)", "details": "0.5 M solution vs tap water; for % of preference Mean: two minutes, ad libitum conditions", "excerpt": "This example tests preferences in drinking water for amino acids L-Glutamine and L-Lysine in weaned piglets maintained in ad libitum conditions.\nA total number of 58 pigs (Landrace×Large White) of 18±2 Kg BW, half males and half females, were used in this study. The test pigs were selected according to their level of stress and behaviour in front of social isolation, reaction to novelty and training to perform a choice between two containers that had the test solution (sugar at 0.5M) and control solution (tap water) after an habituation period of four days. During the habituation period, individual pigs were maintained in contiguous pens in front of two unfamiliar red plastic containers (double-choice test) during 10 minutes every day. On the fourth day, animals were trained for performing the test. […] Selected test animals were maintained in groups of four and three pen mates under ad libitum conditions, feed and water, with a balanced diet according to their requirements. During the experimental sessions, pigs were exposed simultaneously to two different solutions (approximately 250 g in each container) for a time period of two minutes. One of the solutions was tap water (control) and the other contained a 0.5M solution of one of the amino acids tested (test). Volume depletion of both test and control solutions were recorded and the % preference related to the test solution calculated as follows: […]"}}, "note": "Several values for one entry are separate records, joined by “and”; a condition that tells them apart may be missing. Equal values may be shown once.", "data": [{"molecule": "N[C@@H](CC(=O)O)C(=O)O", "note": "[Aspartate]", "values": [{"measurement": "Absorbance Mean", "setting": "[1]; treatment 1 mM", "value": 8619}, {"measurement": "Index Relative to control", "setting": "[1]; treatment 1 mM", "value": 1.03}, {"measurement": "Absorbance Mean", "setting": "[1]; treatment 10 mM", "value": 10352}, {"measurement": "Index Relative to control", "setting": "[1]; treatment 10 mM", "value": "1.24^1"}]}, {"molecule": "NC(=O)CC[C@H](N)C(=O)O", "note": "[Glutamine, L-Glutamine]", "values": [{"measurement": "stimulation of the pig umami receptor (signal, in words)", "setting": "[1]; listed as L-Glutamine", "value": "high degree of stimulation"}, {"measurement": "stimulation of the pig umami receptor (signal, in words)", "setting": "[1]; listed as glutamine", "value": "the strongest and the most significant signal"}, {"measurement": "Absorbance Mean", "setting": "[1]; treatment 1 mM", "value": 10901}, {"measurement": "Index Relative to control", "setting": "[1]; treatment 1 mM", "value": "1.31^1"}, {"measurement": "Absorbance Mean", "setting": "[1]; treatment 10 mM", "value": 10038}, {"measurement": "Index Relative to control", "setting": "[1]; treatment 10 mM", "value": "1.20^1"}, {"measurement": "% of preference Mean", "setting": "weaned piglets", "value": "59.56% and 79.28%"}, {"measurement": "preferences over tap water", "setting": "weaned piglets; 1st study", "value": 60, "unit": "%"}, {"measurement": "preferences over tap water", "setting": "weaned piglets; 2nd study", "value": 79, "unit": "%"}]}, {"molecule": "NCC(=O)O", "note": "[Glycine]", "values": [{"measurement": "Absorbance Mean", "setting": "[1]; treatment 1 mM", "value": 8874}, {"measurement": "Index Relative to control", "setting": "[1]; treatment 1 mM", "value": 1.06}, {"measurement": "Absorbance Mean", "setting": "[1]; treatment 5 mM", "value": 9543}, {"measurement": "Index Relative to control", "setting": "[1]; treatment 5 mM", "value": 1.14}]}, {"molecule": "O=P(O)(O)O[C@@H]1[C@@H](O)[C@H](O)[C@@H](O)[C@H](O)[C@@H]1O", "note": "[IMP, inositol monophosphate]", "values": [{"measurement": "Absorbance Mean", "setting": "[1]; treatment 2.5 mM", "value": 9161}, {"measurement": "Index Relative to control", "setting": "[1]; treatment 2.5 mM", "value": 1.10}]}, {"molecule": "NC(CCP(=O)(O)O)C(=O)O", "note": "[L-AP4]", "values": [{"measurement": "Absorbance Mean", "setting": "[1]; treatment 5 mM", "value": 8907}, {"measurement": "Index Relative to control", "setting": "[1]; treatment 5 mM", "value": 1.07}, {"measurement": "Absorbance Mean", "setting": "[1]; treatment 10 mM", "value": 9316}, {"measurement": "Index Relative to control", "setting": "[1]; treatment 10 mM", "value": 1.12}]}, {"molecule": "NCCCC[C@H](N)C(=O)O", "note": "[L-Lysine]", "values": [{"measurement": "stimulation of the pig umami receptor (signal, in words)", "setting": "[1]", "value": "little or no capacity"}, {"measurement": "preference (in words)", "setting": "weaned piglets", "value": "negative preference"}, {"measurement": "% of preference Mean", "setting": "weaned piglets", "value": 37.66, "unit": "%"}, {"measurement": "preferences over tap water", "setting": "weaned piglets; study not given", "value": "about 38%"}]}, {"molecule": "CC(C)C[C@H](N)C(=O)O", "note": "[Leucine]", "values": [{"measurement": "stimulation of the pig umami receptor (signal, in words)", "setting": "[1]", "value": "the strongest and the most significant signal"}, {"measurement": "Absorbance Mean", "setting": "[1]; treatment 10 mM", "value": 9163}, {"measurement": "Index Relative to control", "setting": "[1]; treatment 10 mM", "value": 1.10}, {"measurement": "Absorbance Mean", "setting": "[1]; treatment 30 mM", "value": 10161}, {"measurement": "Index Relative to control", "setting": "[1]; treatment 30 mM", "value": "1.22^1"}]}, {"molecule": "Cl.NCCCC[C@H](N)C(=O)O", "note": "[Lysine HCl]", "values": [{"measurement": "Absorbance Mean", "setting": "[1]; treatment 10 mM", "value": 9319}, {"measurement": "Index Relative to control", "setting": "[1]; treatment 10 mM", "value": 1.12}, {"measurement": "Absorbance Mean", "setting": "[1]; treatment 30 mM", "value": 9675}, {"measurement": "Index Relative to control", "setting": "[1]; treatment 30 mM", "value": 1.16}]}, {"molecule": "N[C@@H](CO)C(=O)O", "note": "[Serine]", "values": [{"measurement": "Absorbance Mean", "setting": "[1]; treatment 5 mM", "value": 8372}, {"measurement": "Index Relative to control", "setting": "[1]; treatment 5 mM", "value": 1.00}, {"measurement": "Absorbance Mean", "setting": "[1]; treatment 10 mM", "value": 9697}, {"measurement": "Index Relative to control", "setting": "[1]; treatment 10 mM", "value": 1.16}]}, {"molecule": "C[C@H](N)C(=O)O", "note": "[alanine]", "values": [{"measurement": "response index", "setting": "[1]", "value": 3.47}]}, {"molecule": "N[C@@H](CS)C(=O)O", "note": "[cysteine]", "values": [{"measurement": "response index", "setting": "[1]", "value": 0.83}]}, {"molecule": "C/C=C(/C)C(=O)O[C@H]1C(C)=C2[C@H]([C@@H]1OC(=O)CCCCCCC)[C@@](C)(OC(C)=O)C[C@H](OC(=O)CCC)[C@@]1(O)[C@H]2OC(=O)[C@@]1(C)O", "note": "[thapsigargin, reference compound]", "values": [{"measurement": "response index", "setting": "[1]", "value": 17.89}]}]}
